# Measurements published in the kinase profiling compilation of Christmann-Franck et al. (2016).
# Tests used:
# Assay in all cases: radiometric filter-binding kinase assay
# [1] = target: CSNK2A1 (human) (UniProt P68400)
# [2] = tested on: SGK1 (human), O00141 [S422D]
# [3] = target: IKBKE (human) (UniProt Q14164)
# [4] = target: PIM1 (human) (UniProt P11309)
# [5] = tested on: AKT1 (human), P31749 [S473D]
# [6] = tested on: ROCK2 (rat); conditions: accession and sequence are those of the human protein
# [7] = target: PIM2 (human) (UniProt Q9P1W9)
# [8] = target: EPHB3 (human) (UniProt P54753)
# [9] = target: RPS6KA3 KD1 KD2 (human) (UniProt P51812)
# [10] = target: PAK4 (human) (UniProt O96013)
# [11] = target: MAPK12 (human) (UniProt P53778)
# [12] = target: MAPK11 (human) (UniProt Q15759)
# [13] = target: STK3 (human) (UniProt Q13188)
# [14] = target: MKNK2 (human) (UniProt Q9HBH9)
# [15] = target: MAPKAPK5 (human) (UniProt Q8IW41)
# [16] = target: PLK1 (human) (UniProt P53350)
# [17] = target: MAPK3 (human) (UniProt P27361)
# [18] = target: MAPK8 (human) (UniProt P45983)
# [19] = target: TBK1 (human) (UniProt Q9UHD2)
# [20] = target: DYRK3 (human) (UniProt O43781)
# [21] = target: BRSK2 (human) (UniProt Q8IWQ3)
# [22] = target: DYRK1A (human) (UniProt Q13627)
# [23] = target: MAPK14 (human) (UniProt Q16539)
# [24] = target: PIM3 (human) (UniProt Q86V86)
# [25] = tested on: RPS6KB1 (human), P23443 [T412E]
# [26] = target: RPS6KA1 KD1 KD2 (human) (UniProt Q15418)
# Sequence of DYRK3 (human) (O43781 whole entry, looked up): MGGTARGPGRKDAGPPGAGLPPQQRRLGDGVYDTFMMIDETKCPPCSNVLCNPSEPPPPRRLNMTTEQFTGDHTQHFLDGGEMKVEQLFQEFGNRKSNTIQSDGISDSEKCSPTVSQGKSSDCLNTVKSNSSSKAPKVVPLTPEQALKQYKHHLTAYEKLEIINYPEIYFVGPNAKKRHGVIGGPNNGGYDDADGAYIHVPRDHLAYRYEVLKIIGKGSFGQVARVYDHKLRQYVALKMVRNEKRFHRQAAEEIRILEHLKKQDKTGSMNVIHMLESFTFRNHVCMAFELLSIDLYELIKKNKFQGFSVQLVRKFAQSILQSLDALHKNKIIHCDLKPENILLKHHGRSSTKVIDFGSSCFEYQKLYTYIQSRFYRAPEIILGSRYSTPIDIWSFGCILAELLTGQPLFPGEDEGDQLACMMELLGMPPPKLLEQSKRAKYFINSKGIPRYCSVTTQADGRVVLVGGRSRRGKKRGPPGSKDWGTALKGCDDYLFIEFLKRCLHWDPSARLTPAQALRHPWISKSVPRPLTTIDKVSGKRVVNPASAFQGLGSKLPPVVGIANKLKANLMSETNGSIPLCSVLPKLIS
# Sequence of AKT1 (human), P31749 [S473D] (P31749 whole entry S473D, looked up): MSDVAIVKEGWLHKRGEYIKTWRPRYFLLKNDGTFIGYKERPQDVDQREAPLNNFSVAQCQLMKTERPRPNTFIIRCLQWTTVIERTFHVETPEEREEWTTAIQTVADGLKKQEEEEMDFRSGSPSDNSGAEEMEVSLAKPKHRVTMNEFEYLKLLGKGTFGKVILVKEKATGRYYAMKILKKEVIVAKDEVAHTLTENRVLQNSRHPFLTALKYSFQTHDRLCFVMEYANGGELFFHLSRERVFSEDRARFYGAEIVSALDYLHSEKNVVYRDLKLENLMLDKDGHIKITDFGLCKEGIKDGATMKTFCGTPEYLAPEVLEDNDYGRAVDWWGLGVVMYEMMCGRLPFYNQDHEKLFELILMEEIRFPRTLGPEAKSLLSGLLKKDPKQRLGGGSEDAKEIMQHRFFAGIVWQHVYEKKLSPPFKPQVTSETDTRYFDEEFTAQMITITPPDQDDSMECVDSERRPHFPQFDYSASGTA
# Sequence of RPS6KA3 KD1 KD2 (human) (P51812 whole entry, looked up): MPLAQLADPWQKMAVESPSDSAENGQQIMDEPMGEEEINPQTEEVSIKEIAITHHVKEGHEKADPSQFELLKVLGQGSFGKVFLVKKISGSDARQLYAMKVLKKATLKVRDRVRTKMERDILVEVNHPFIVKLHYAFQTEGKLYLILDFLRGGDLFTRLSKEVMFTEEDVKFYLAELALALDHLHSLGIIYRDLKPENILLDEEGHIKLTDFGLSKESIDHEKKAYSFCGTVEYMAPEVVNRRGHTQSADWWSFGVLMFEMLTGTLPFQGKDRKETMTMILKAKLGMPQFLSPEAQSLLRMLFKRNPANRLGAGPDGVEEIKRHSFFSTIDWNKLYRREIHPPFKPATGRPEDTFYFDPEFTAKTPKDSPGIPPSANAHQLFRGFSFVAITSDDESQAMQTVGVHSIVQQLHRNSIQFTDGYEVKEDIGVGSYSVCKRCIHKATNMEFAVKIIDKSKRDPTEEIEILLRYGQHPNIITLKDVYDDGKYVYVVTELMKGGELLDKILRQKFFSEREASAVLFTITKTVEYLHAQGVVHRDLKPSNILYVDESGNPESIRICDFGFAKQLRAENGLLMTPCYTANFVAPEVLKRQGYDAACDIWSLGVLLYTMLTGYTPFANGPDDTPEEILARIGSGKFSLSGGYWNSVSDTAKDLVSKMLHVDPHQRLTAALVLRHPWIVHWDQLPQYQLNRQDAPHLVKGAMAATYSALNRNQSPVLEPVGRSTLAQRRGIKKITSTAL
# Sequence of BRSK2 (human) (Q8IWQ3 whole entry, looked up): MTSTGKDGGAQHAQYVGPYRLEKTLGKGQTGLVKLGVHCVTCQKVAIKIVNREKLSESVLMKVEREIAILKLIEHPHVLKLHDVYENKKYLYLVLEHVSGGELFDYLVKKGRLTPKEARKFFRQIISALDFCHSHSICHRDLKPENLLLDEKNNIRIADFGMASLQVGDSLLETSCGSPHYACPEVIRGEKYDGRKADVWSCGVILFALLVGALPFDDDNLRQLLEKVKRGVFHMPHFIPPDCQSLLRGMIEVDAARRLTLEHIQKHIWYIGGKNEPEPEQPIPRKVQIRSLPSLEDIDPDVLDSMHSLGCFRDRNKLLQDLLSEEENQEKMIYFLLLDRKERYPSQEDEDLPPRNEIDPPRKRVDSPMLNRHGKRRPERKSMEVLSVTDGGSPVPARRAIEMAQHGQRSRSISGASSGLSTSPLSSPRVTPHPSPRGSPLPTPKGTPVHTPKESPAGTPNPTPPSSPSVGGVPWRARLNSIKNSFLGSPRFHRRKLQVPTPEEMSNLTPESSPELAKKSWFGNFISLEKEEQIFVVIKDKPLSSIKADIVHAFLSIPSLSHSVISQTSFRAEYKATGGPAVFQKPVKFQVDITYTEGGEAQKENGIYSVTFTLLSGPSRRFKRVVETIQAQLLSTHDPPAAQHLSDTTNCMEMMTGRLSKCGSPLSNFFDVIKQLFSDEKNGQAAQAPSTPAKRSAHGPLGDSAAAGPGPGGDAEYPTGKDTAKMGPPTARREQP
# Sequence of PIM1 (human) (P11309 whole entry, looked up): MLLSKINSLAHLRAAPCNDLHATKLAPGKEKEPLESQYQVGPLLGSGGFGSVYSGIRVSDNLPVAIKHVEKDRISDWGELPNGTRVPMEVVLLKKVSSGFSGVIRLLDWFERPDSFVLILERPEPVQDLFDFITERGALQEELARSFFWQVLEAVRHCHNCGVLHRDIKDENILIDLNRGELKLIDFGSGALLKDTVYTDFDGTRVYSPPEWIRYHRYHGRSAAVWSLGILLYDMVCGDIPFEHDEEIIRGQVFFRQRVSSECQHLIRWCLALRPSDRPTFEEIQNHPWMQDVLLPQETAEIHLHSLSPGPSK
# Sequence of MAPK14 (human) (Q16539 whole entry, looked up): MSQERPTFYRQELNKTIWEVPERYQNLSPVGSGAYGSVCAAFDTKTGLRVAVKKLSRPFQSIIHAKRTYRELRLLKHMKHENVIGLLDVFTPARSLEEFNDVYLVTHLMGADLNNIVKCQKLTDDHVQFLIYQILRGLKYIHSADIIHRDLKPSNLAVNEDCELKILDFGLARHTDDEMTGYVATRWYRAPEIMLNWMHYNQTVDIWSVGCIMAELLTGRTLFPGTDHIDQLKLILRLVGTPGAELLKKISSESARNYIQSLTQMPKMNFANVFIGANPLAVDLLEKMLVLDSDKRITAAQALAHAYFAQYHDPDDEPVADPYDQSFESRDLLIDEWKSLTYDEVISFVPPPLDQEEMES
# Sequence of MKNK2 (human) (Q9HBH9 whole entry, looked up): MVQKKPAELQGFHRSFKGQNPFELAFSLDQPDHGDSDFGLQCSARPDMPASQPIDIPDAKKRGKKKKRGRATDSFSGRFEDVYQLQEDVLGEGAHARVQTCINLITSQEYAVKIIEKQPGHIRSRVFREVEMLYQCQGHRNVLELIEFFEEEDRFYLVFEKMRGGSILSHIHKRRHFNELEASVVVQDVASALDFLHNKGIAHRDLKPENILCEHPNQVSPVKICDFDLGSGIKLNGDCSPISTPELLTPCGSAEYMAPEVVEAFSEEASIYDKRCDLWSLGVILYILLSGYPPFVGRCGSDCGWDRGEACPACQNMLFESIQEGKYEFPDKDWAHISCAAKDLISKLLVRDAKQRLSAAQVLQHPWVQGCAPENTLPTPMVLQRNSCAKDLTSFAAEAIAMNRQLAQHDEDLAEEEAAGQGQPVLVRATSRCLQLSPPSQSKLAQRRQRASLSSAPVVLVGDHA
# Sequence of PIM2 (human) (Q9P1W9 whole entry, looked up): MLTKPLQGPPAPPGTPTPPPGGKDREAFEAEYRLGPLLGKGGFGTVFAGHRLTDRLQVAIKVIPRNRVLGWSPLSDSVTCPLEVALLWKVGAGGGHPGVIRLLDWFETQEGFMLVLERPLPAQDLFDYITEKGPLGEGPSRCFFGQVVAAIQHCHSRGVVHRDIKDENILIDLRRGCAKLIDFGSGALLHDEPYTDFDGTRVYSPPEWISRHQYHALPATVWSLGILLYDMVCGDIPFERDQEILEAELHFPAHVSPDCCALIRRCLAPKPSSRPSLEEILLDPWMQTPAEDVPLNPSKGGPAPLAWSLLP
# Sequence of CSNK2A1 (human) (P68400 whole entry, looked up): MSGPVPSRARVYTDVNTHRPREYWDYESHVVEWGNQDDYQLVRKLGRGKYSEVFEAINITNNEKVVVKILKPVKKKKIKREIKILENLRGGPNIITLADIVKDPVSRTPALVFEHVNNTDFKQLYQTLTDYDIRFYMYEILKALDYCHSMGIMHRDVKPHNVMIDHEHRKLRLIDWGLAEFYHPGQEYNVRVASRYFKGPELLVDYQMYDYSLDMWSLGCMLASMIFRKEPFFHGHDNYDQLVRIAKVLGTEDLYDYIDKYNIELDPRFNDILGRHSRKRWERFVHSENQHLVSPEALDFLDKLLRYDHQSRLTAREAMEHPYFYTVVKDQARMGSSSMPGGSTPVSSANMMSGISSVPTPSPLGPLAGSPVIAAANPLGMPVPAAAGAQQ
smiles,measurement,setting,value
O=C1Nc2nc(-c3c(O)cccc3OCC3CC3)cc(C3CCCNC3)c2CO1 (stereo not drawn),residual activity,[1]; compound 1.0 µM,95%
same,residual activity,[1]; compound 10.0 µM,70%
same,residual activity,[2]; compound 1.0 µM,55%
same,residual activity,[2]; compound 10.0 µM,13%
same,residual activity,[3]; compound 1.0 µM,83%
same,residual activity,[3]; compound 10.0 µM,74%
same,residual activity,[4]; compound 1.0 µM,76%
same,residual activity,[4]; compound 10.0 µM,15%
same,residual activity,[5]; compound 1.0 µM,87%
same,residual activity,[5]; compound 10.0 µM,55%
same,residual activity,[6]; compound 1.0 µM,73%
same,residual activity,[6]; compound 10.0 µM,39%
same,residual activity,[7]; compound 10.0 µM,40%
same,residual activity,[8]; compound 1.0 µM,89%
same,residual activity,[8]; compound 10.0 µM,93%
same,residual activity,[9]; compound 1.0 µM,80%
same,residual activity,[9]; compound 10.0 µM,53%
same,residual activity,[10]; compound 1.0 µM,89%
same,residual activity,[10]; compound 10.0 µM,54%
same,residual activity,[11]; compound 1.0 µM,85%
same,residual activity,[11]; compound 10.0 µM,66%
same,residual activity,[12]; compound 1.0 µM,91%
same,residual activity,[12]; compound 10.0 µM,74%
same,residual activity,[13]; compound 1.0 µM,84%
same,residual activity,[13]; compound 10.0 µM,67%
same,residual activity,[14]; compound 1.0 µM,98%
same,residual activity,[14]; compound 10.0 µM,87%
same,residual activity,[15]; compound 1.0 µM,74%
same,residual activity,[15]; compound 10.0 µM,58%
same,residual activity,[16]; compound 1.0 µM,83%
same,residual activity,[16]; compound 10.0 µM,87%
same,residual activity,[17]; compound 10.0 µM,86%
same,residual activity,[18]; compound 1.0 µM,76%
same,residual activity,[18]; compound 10.0 µM,61%
same,residual activity,[19]; compound 1.0 µM,91%
same,residual activity,[19]; compound 10.0 µM,84%
same,residual activity,[20]; compound 1.0 µM,71%
same,residual activity,[20]; compound 10.0 µM,24%
same,residual activity,[21]; compound 1.0 µM,89%
same,residual activity,[21]; compound 10.0 µM,45%
same,residual activity,[22]; compound 1.0 µM,99%
same,residual activity,[22]; compound 10.0 µM,82%
same,residual activity,[23]; compound 1.0 µM,91%
same,residual activity,[23]; compound 10.0 µM,78%
same,residual activity,[24]; compound 1.0 µM,44%
same,residual activity,[24]; compound 10.0 µM,7%
same,residual activity,[25]; compound 1.0 µM,102%
same,residual activity,[25]; compound 10.0 µM,68%
same,residual activity,[26]; compound 1.0 µM,83%
same,residual activity,[26]; compound 10.0 µM,46%
Cc1cc(SCc2sc(-c3ccc(C(F)(F)F)cc3)nc2C)ccc1OCC(=O)O,residual activity,[1]; compound 1.0 µM,84%
same,residual activity,[1]; compound 10.0 µM,79%
same,residual activity,[2]; compound 1.0 µM,111%
same,residual activity,[2]; compound 10.0 µM,109%
same,residual activity,[3]; compound 1.0 µM,92%
same,residual activity,[3]; compound 10.0 µM,92%
same,residual activity,[4]; compound 1.0 µM,79%
same,residual activity,[4]; compound 10.0 µM,83%
same,residual activity,[5]; compound 1.0 µM,107%
same,residual activity,[5]; compound 10.0 µM,105%
same,residual activity,[6]; compound 1.0 µM,99%
same,residual activity,[6]; compound 10.0 µM,91%
same,residual activity,[7]; compound 1.0 µM,99%
same,residual activity,[7]; compound 10.0 µM,106%
same,residual activity,[8]; compound 10.0 µM,115%
same,residual activity,[9]; compound 1.0 µM,94%
same,residual activity,[10]; compound 1.0 µM,87%
same,residual activity,[10]; compound 10.0 µM,66%
same,residual activity,[11]; compound 1.0 µM,108%
same,residual activity,[11]; compound 10.0 µM,106%
same,residual activity,[12]; compound 1.0 µM,91%
same,residual activity,[12]; compound 10.0 µM,94%
same,residual activity,[13]; compound 1.0 µM,97%
same,residual activity,[13]; compound 10.0 µM,122%
same,residual activity,[14]; compound 1.0 µM,99%
same,residual activity,[14]; compound 10.0 µM,83%
same,residual activity,[15]; compound 10.0 µM,39%
same,residual activity,[16]; compound 1.0 µM,75%
same,residual activity,[16]; compound 10.0 µM,60%
same,residual activity,[17]; compound 1.0 µM,115%
same,residual activity,[18]; compound 1.0 µM,83%
same,residual activity,[18]; compound 10.0 µM,74%
same,residual activity,[19]; compound 1.0 µM,102%
same,residual activity,[19]; compound 10.0 µM,88%
same,residual activity,[20]; compound 1.0 µM,83%
same,residual activity,[20]; compound 10.0 µM,81%
same,residual activity,[21]; compound 1.0 µM,91%
same,residual activity,[21]; compound 10.0 µM,78%
same,residual activity,[22]; compound 1.0 µM,87%
same,residual activity,[22]; compound 10.0 µM,59%
same,residual activity,[23]; compound 1.0 µM,82%
same,residual activity,[23]; compound 10.0 µM,98%
same,residual activity,[24]; compound 1.0 µM,86%
same,residual activity,[24]; compound 10.0 µM,72%
same,residual activity,[25]; compound 1.0 µM,98%
same,residual activity,[25]; compound 10.0 µM,105%
same,residual activity,[26]; compound 1.0 µM,106%
same,residual activity,[26]; compound 10.0 µM,113%
